Test results as given in patent publication US8338472B2, “Hexahydrocyclopentyl[F]indazole carboxamides and derivatives thereof as selective glucocorticoid receptor modulators” (Merck Sharp & Dohme Corp., priority 2008, dated 2012).
Where two headings read alike, the source gives them in different places.

Assays:
[1] = target: T1, glucocorticoid receptor (GR) (Homo sapiens, UniProt P04150); test: Ligand binding assay (GR BIND), 3H-dexamethasone displacement in MDA-MB-453 cell lysate; conditions: GR BIND Ki, Table 1
T1 sequence (P04150 1-777): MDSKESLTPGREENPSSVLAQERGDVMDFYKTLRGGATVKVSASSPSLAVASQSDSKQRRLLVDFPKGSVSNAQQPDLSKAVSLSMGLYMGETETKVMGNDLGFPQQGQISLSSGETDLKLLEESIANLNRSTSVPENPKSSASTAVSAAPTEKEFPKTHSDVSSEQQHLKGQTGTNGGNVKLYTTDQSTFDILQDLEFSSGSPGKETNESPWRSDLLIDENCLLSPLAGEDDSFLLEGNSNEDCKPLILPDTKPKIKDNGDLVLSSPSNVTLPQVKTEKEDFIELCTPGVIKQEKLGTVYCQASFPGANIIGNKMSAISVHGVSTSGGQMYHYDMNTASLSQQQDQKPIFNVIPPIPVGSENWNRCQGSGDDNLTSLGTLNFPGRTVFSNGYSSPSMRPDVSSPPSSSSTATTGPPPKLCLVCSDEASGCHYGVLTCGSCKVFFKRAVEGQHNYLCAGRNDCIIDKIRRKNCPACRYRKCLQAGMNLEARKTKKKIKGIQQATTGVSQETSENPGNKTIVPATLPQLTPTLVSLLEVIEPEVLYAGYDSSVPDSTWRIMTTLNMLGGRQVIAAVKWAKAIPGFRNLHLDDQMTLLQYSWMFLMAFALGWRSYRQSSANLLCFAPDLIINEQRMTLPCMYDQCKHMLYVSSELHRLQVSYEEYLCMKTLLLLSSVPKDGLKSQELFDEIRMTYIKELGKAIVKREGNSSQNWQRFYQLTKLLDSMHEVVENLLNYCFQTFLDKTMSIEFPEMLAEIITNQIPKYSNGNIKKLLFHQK

Glucocorticoid Receptor = target: T2, Glucocorticoid Receptor (Homo sapiens, UniProt P04150); test: Trans-Activation Modulation of Glucocorticoid Receptor (GRAMMER), MMTV-LUC reporter gene in A549 cells; type: cell-based; conditions: Table 1; for Emax: A549, A549 cells, Emax relative to 300 nM dexamethasone, read-out: Transactivation A549 Cells GRAMMER Emax; for EC50: inflection point, A549 cells, read-out: Transactivation A549 Cells GRAMMER IP
T2 construct: These cells express large amount of the GR and are very responsive to GC treatment; endogenous in cells; host or cells: A549 cells transiently transfected with the MMTV-LUC reporter
T2 sequence (P04150 1-777): T1 sequence (P04150 1-777)
Excerpt: Trans-Activation Modulation of Glucocorticoid Receptor (GRAMMER)
This assay assesses the ability of test compounds to control transcription from the MMTV-LUC reporter gene in lung adenocarcinoma A549 cells or MDA-MB-453 cells, a human breast cancer cell line that naturally expresses the human GR. The assay measures induction of a modified MMTV LTR/promoter linked to the LUC reporter gene.
The routine transient assay consists of plating 7,000-25,000 cells/well of a white, clear-bottom 96-well plate. Alternatively, 384-well plates can be used at a cell concentration of 10,000/well. The media that the cells are plated in is “exponential growth medium” which consists of phenol red-free RPMI1640 containing 10% FBS, 4 mM L-glutamine, 20 mM HEPES, 10 ug/mL human insulin, and 20 ug/mL gentamicin. Incubator conditions are 37° C. and 5% CO2. The transfection is done in batch mode. The cells are trypsinized and counted to the right cell number in the proper amount of fresh media. It is then gently mixed with the FuGene6/DNA mix and plated onto the 96 or 384-well plate, all the wells receive 100 uL or 40 uL, respectively, of medium+lipid/DNA complex then incubated 37° C. overnight. The transfection cocktail consists of serum-free OptiMEM, FuGene6 reagent and DNA. The manufacturer's (Roche Biochemical) protocol for cocktail setup is as follows: The lipid to DNA ratio is approximately 2.5:1 and the incubation time is 20 min at room temperature. Sixteen to 24 hours after transfection, the cells are treated with dexamethasone to a final concentration of 10 nM as well as the compound of interest, such that final DMSO (vehicle) concentration is equal to or less than 1%. Each plate also contains samples that are treated with 10 nM dexamethasone alone, which is used as the 100% activity control. The cells are exposed to the compounds for 24 hours. After 24 hours, the cells are lysed by a Promega cell culture lysis buffer for approximately 30 min and then the luciferase activity in the extracts is assayed in the 96-well format luminometer. In 384-well format, Steady-Glo (Promega) or Steady-Lite (PerkinElmer) can be used by adding an equal volume of reagent to the media present in each well. Activity induced by 10 nM dexamethasone alone is set at 100% activity. Antagonist activity is calculated by determining the decrease in dexamethasone-induced activity in response to compound treatment relative to samples that were treated with dexamethasone alone. […] This transactivation assay can be performed in an agonist and antagonist mode to identify these different activities.
Activity of test compounds is calculated as the Emax relative to the activity obtained with 300 nM dexamethasone. Activity of test compounds is calculated as the Emax relative to the activity obtained with 300 nM DEX. […] The action of compounds is also tested in an antagonist mode (Anti-GRAMMER) in which the cells are treated with medium containing an agonist such as 10 nM DEX and the ability to agents to inhibit the activation by an agonist is measured.

human GR = target: T3, human GR (Homo sapiens, UniProt P04150); test: Transrepression Assay (GITAR), TNFα-β-lactamase reporter gene in U937 cells; type: cell-based; conditions: for GITAR Greater than by GRAMMER % SEP: GITAR Emax minus GRAMMER Emax; for EC50: inflection point, U937 cells, read-out: Transrepression U937 Cells GITAR IP
T3 construct: U937 cells contain an endogenous glucocorticoid receptor (GR); endogenous in cells; host or cells: U937 cells stably transfected with the TNF-alpha promoter/beta-lactamase reporter
T3 sequence (P04150 1-777): T1 sequence (P04150 1-777)
Excerpt: Transrepression Assay (GITAR)
This assay assesses the ability of test compounds to control transcription from the TNFα-β-lactamase reporter gene in U937 cells, a human myelomonocytic leukemia cell line that naturally expresses the human GR. The assay measures compound dependent-repression of the TNFa promoter linked to a reporter gene.
The human U937 cells that had been stablely transfected with the TNF-α promoter driving β-lactamase are used for this assay. U937 cells contain an endogenous glucocorticoid receptor (GR). Cells are maintained in RPMI 1640 Growth medium (Gibco Cat#11875-093) containing 25 mM HEPES, 10% FBS, 2 mM L-Glutamine, 1 mM Sodium pyruvate, 25 μg/ml Gentamicin (Gibco Cat#15710-064), 1:1000 2-Mercaptoethanol (Gibco Cat#21985-023) and 0.8 mg/ml G418 (Gibco Cat#10131-027). The density of the cells in the flask needs to be about 1×10^6−3×10^6/ml at the time of harvest. Usually, the cells are split to 1.2˜1.4×10^5/ml (1:10) 3 days prior to the assay. 50,000 cells/well are plated in 96 well black-walled plates the day of assay. Test compounds are added 10 pt/well, and cells are incubated at 37° C. for 30-45 min. For assaying compounds, first dilute 1:10 in DMSO to make 1 mM, then further dilute 1:100 in medium to make 10× stock prior to adding to the cells. Add 50 ng/ml PMA (Sigma, cat# P8139) 10 μL/well to a final concentration 5 ng/ml, and 1 μg/ml LPS (Sigma, cat# L4130) 10 μL/well to a final concentration 100 ng/ml. Incubate cells at 37° C. overnight for ˜18 hr. PMA is stored frozen as 100 μg/ml stock in DMSO. Dilute 1:10 in DMSO for a working stock of 10 μg/ml and store at −20C. For assaying, dilute the […] working stock 1:200 in medium to make a 10× solution (50 ng/ml). Store frozen LPS at 1 mg/ml in PBS, dilute 1:1000 in medium to make 10× (1 μg/ml) for the assay. Add 6× loading buffer (CCF2−AM) 20 μL/well, and incubate at room temperature for 70-90 min. […] The activity repressed by 100 nM dexamethasone alone is set as 100% activity.

[2] = U-937, U937 cells, activity repressed by 100 nM dexamethasone = 100%, Table 1, read-out: Transrepression U937 Cells GITAR Emax
[3] = U-937, text statement, 100 nM dexamethasone = 100%, read-out: maximal activity in the transrepression assay (GITAR)

| Compound | Ki [1] [nM] | Emax (Glucocorticoid Receptor) [%] | EC50 (Glucocorticoid Receptor) [nM] | GITAR Greater than by GRAMMER % SEP (human GR; Table 1) [%] | Emax (human GR; [2]) [%] | Emax (human GR; [3]) [%] | EC50 (human GR; Table 1) [nM] |
| --- | --- | --- | --- | --- | --- | --- | --- |
| C[C@]12Cc3cnn(-c4ccc(F)cc4)c3C=C1CC[C@@H]2C(=O)Nc1ccccc1S(N)(=O)=O [Compound 23, (4αR,5S)-N-[2-(aminosulfonyl)phenyl]-1-(4-fluorophenyl)-4α-methyl-1,4,4α,5,6,7-hexahydrocyclopenta[f]indazole-5-carboxamide] | 19.4 | 3.8 | 45.4 | 14.2 | 18 | > 5 | 1700 |
| C[C@]12Cc3cnn(-c4ccc(F)cc4)c3C=C1CC[C@@H]2C(=O)N(CCO)Cc1ccccc1F [Compound 25, (4α,5S)-N-(2-fluorobenzyl)-1-(4-fluorophenyl)-N-(2-hydroxyethyl)-4α-methyl-1,4,4α,5,6,7-hexahydrocyclopenta[f]indazole-5-carboxamide] | 12.5 | 9.3 | 1440 | 38.7 | 48 | > 5 | 2740 |
| CCCCN(CCO)C(=O)[C@H]1CCC2=Cc3c(cnn3-c3ccc(F)cc3)C[C@@]21C [Compound 26, (4αR,5S)-N-butyl-1-(4-fluorophenyl)-N-(2-hydroxyethyl)-4α-methyl-1,4,4α,5,6,7-hexahydrocyclopenta[f]indazole-5-carboxamide] | 16.4 | 39.3 | 812 | 44.1 | 83.4 | > 5 | 809 |
| Cc1ccc(CN(CCO)C(=O)[C@H]2CCC3=Cc4c(cnn4-c4ccc(F)cc4)C[C@@]32C)cc1F [Compound 27, (4αR,5S)-N-(3-fluoro-4-methylbenzyl)-1-(4-fluorophenyl)-N-(2-hydroxyethyl)-4α-methyl-1,4,4α,5,6,7-hexahydrocyclopenta[f]indazole-5-carboxamide] | 13.9 | 10.2 | 2160 | 45.6 | 55.8 | > 5 | 1620 |
| C[C@]12Cc3cnn(-c4ccc(F)cc4)c3C=C1CC[C@@H]2C(=O)N(CCO)Cc1cc(F)c(F)c(F)c1 [Compound 28, (4αR,5S)-1-(4-fluorophenyl)-N-(2-hydroxyethyl)-4α-methyl-N-(3,4,5-trifluorobenzyl)-1,4,4α,5,6,7-hexahydrocyclopenta[f] indazole-5-carboxamide] | 8.9 | 10.6 | 1220 | 45.4 | 56 | > 5 | 1290 |

Compounds with a lower Ki [1], results first:

| Ki [1] [nM] | Emax (Glucocorticoid Receptor) [%] | EC50 (Glucocorticoid Receptor) [nM] | GITAR Greater than by GRAMMER % SEP (human GR; Table 1) [%] | Emax (human GR; [2]) [%] | Emax (human GR; [3]) [%] | EC50 (human GR; Table 1) [nM] | Compound |
| --- | --- | --- | --- | --- | --- | --- | --- |
| 4.8 | 5.5 | 386 | 11.7 | 17.3 | > 5 | 1970 | C[C@]12Cc3cnn(-c4ccc(F)cc4)c3C=C1CC[C@@H]2C(=O)N1CCCCC1Cc1ccccc1 (stereo partly drawn) [Compound 22, (4αR,5S)-5-[(2-benzylpiperidin-1-yl)carbonyl]-1-(4-fluorophenyl)-4α-methyl-1,4,4α,5,6,7-hexahydrocyclopenta[f]indazole] |
| 4.7 | 9.2 | 615 | 5.3 | 14.5 | > 5 | 405 | CCNC(=O)CN(CCc1ccccc1)C(=O)[C@H]1CCC2=Cc3c(cnn3-c3ccc(F)cc3)C[C@@]21C [Compound 24, (4αR,5S)-N-[2-(ethylamino)-2-oxoethyl]-1-(4-fluorophenyl)-4α-methyl-N-(2-phenylethyl)-1,4,4α,5,6,7-hexahydrocyclopenta[f]indazole-5-carboxanide] |
| 3.1 | 3.6 | 1.3 | 7.4 | 11 | > 5 | 693 | C[C@]12Cc3cnn(-c4ccc(F)cc4)c3C=C1CC[C@@H]2C(=O)N1CCCC(CCc2ccccc2)C1 (stereo partly drawn) [Compound 20, (4αR,5S)-1-(4-fluorophenyl)-4α-methyl-5-{[3-(2-phenylethyl)piperidin-1-yl]carbonyl}-1,4,4α,5,6,7-hexahydrocyclopenta[f]indazole] |
| 2.3 | 26.2 | 569 | 1.9 | 28.1 | > 5 | 742 | C[C@]12Cc3cnn(-c4ccc(F)cc4)c3C=C1CC[C@@H]2C(=O)N1CCCC(Cc2cccc(C(F)(F)F)c2)C1 (stereo partly drawn) [Compound 21, (4αR,5S)-1-(4-fluorophenyl)-4α-methyl-5-({3-[3-(trifluoromethyl)benzyl]piperidin-1-yl}carbonyl)-1,4,4α,5,6,7-hexahydrocyclopenta[f]indazole] |
